The target of series [1] is T1, E. coli IspE (EcIspE) (Escherichia coli, UniProt P62615).
T1 sequence (P62615 1-283): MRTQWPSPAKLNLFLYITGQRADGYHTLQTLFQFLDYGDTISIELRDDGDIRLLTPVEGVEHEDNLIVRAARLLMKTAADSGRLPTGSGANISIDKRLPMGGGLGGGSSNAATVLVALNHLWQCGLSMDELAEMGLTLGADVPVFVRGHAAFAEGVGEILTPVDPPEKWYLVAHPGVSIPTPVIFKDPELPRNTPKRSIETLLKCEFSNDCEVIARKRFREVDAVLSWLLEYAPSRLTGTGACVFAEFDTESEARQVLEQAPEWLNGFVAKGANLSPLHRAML
Put plainly: coupled spectrophotometric assay, dose-response. Type of series: biochemical.

The target in series [2] is T2, A. baumannii IspE (AbIspE) (Acinetobacter baumannii, UniProt B2HUM5).
T2 sequence (B2HUM5 1-277): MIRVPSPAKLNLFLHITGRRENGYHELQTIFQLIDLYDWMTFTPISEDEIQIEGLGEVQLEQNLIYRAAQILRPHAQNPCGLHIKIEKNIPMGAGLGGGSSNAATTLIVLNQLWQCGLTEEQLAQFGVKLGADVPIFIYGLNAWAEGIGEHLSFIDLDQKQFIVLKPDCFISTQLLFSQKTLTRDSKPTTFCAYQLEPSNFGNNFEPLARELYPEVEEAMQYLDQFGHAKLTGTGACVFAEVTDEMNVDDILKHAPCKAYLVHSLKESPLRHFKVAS
Put plainly: coupled spectrophotometric assay, dose-response. Type of series: biochemical.

In series [3] the target is T3, K. pneumoniae IspE (KpIspE) (Klebsiella pneumoniae, UniProt A6TAP2).
T3 sequence (A6TAP2 1-283): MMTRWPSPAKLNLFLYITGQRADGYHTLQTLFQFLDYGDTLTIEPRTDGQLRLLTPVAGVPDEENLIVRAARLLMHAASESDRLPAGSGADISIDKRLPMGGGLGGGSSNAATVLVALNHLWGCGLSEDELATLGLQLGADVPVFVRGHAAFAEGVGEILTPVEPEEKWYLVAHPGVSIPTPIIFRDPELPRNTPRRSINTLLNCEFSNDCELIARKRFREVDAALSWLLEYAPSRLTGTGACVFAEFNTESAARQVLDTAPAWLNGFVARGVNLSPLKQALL
Put plainly: coupled spectrophotometric assay, dose-response. Type of series: biochemical.

Substrate in series [4]: Nc1ncnc2c1ncn2[C@@H]1O[C@H](COP(=O)(O)OP(=O)(O)OP(=O)(O)O)[C@@H](O)[C@H]1O
Put plainly: purified protein. The conditions noted are these: room temperature; CDP-ME 2 mM.

Substrate in series [5]: C[C@](O)(CO)[C@H](O)COP(=O)(O)OP(=O)(O)OC[C@H]1O[C@@H](n2ccc(N)nc2=O)[C@H](O)[C@@H]1O
Put plainly: purified protein. The conditions noted are these: room temperature; ATP 1 mM.

Usually IC50 stands for the concentration that gives 50% inhibition. A lower IC50 goes with inhibition by little substance. Broadly, the Km is the substrate concentration at which the rate is half of its maximum.

`Nc1nc(=O)n(C2CCCS2)cc1C#CCNS(=O)(=O)C1CC1` (racemic) [compound 1, (±)-1]: the IC50 in series [1] was determined as 13 ± 2.9 µM; in series [2] it was 20 ± 3 µM; in series [3] it was 8 ± 1.5 µM.
Take `Nc1nc(=O)[nH]cc1C#CCNS(=O)(=O)C1CC1` [compound 2, 2]: the values for the IC50 in series [1] and in series [3] were 36.5 ± 1.6 µM and 44.3 ± 4.9 µM, respectively.
In the same order, the values of `Nc1nc(=O)[nH]cc1C#CCNS(=O)(=O)C1CCCC1` [compound 3, 3] are 10.3 ± 0.7 µM and 11.3 ± 0.6 µM.
On to `Nc1nc(=O)[nH]cc1C#CCNS(=O)(=O)C1CCCCC1` [compound 4, 4], for which the IC50 in series [1] stood at 6.2 ± 3.19 µM; in series [3], 5.2 ± 1.3 µM.

B1: A. baumannii IspE (AbIspE) (Acinetobacter baumannii ACICU) (protein)
chain: T2 sequence (B2HUM5 1-277)
For the molecule B1, the Km in series [4] is recorded as 474 µM; in series [5], 358 µM.

B2: K. pneumoniae IspE (KpIspE) (Klebsiella pneumoniae subsp. pneumoniae MGH 78578) (protein)
chain: T3 sequence (A6TAP2 1-283)
In the case of B2, the Km in series [4] came out at 348 µM; in series [5], 170 µM.

B3: E. coli IspE (EcIspE) (Escherichia coli K-12) (protein)
chain: T1 sequence (P62615 1-283)
Take B3: the values for the Km in series [4] and in series [5] were 420 µM and 200 µM, respectively.

The record behind these values is doi:10.1101/2024.06.17.599194v1 (biorxiv, 2024).
